The source of these data is patent EP1105728B1, “MODULATING MULTIPLE LINEAGE KINASE PROTEINS” (CEPHALON, INC., priority 1998, dated 2000).

Test [1] has as its system sympathetic ganglion neurons (SG). The test can be described thus: Survival of chick embryonic sympathetic ganglion neurons. The test is classed as cell-based. The procedure: Paravertebral sympathetic ganglia (SG; embryonal day 12 (E12)), dorsal root ganglia (DRG;E9), and ciliary ganglia (CG;E8) were dissected from chick embryos at the indicated embryonic day as described in Lindsay, et al., Dev. Biol., 1985, 112, 319-328, which is incorporated herein by reference in its entirety. After trypsinization and dissociation, the nerve cell suspensions were plated onto polyomithine-laminin-coated culture dishes in Ham's F14 culture medium, supplemented with 10% horse serum. Immediately after plating, survival factors were added at the following concentrations: Nerve growth factor (NGF), 20 ng/ml; ciliary neutrophic factor (CNTF), 10 ng/ml. The cultures were maintained at 37° and 5% CO2 in a humidified environment.
(§1) Neurons were plated in 35 mm culture dishes with grids (Nunc). Selected areas of each dish comprising together about 10% of the surface scanned for the presence of phase bright cells immediately after plating and again after 48 h to assess survival percentages. Cell survival was confirmed by vital staining with trypan blue (not shown).

The test system of another test is JNK. Put plainly: JNK activity immunoprecipitated from THP-1 cells. Conditions: Homo sapiens, read-out: THP-1 Cells JNK % inh. 500 nM. The test is classed as cell-based. The procedure: Assays for JNK activity were performed after immunoprecipitating the JNK protein from an extract of lysed THP-1 cells. Pelleted THP-1 cells were lysed on ice for 15 min in 500 µl of Frac buffer (10 mM Tris-Hcl, pH 7.5,50 mM NaCl, 30 µM sodium pyrophosphate, 1 mg/ml BSA, 1% Triton-X-100). The extract was centrifuged for 10 min at 14K and 5 µl of JNK antibody (Santa Cruz) was added to the supernatant. The extract was rotated for 60 min at 4°C, 75 µl of washed protein A Sepharose (20% w/v in Frac) added and the extract rotated another 30 min to bind the antibody complex to the protein A Sepharose. The protein A Sepharose was washed twice with Frac buffer, once with 20 mM Hepes, pH 7.6, 20 mM MgCl2, 2 mM DTT, then incubated for 15 min at 30° C in 30 µl of kinase buffer (20 mM hepes, 20 mM MgCl2, 2 MM DTT, 1 µg recombinant c-jun, and 2 µM ATP-γ-^32P, 2 µCi. The reaction was terminated by the addition of 10 µl of 4X SDS gel loading buffer, heated for 3 min at 80° C, and the proteins were analyzed on a 10% SDS gel. The gel was dried, exposed to a Phosphorimager plate, and the radioactive bands were analyzed on a Phosphorimager.

In test [2] the test system is substantia nigra tyrosine hydroxylase immunoreactive neurons. Put plainly: MPTP model: substantia nigra tyrosine hydroxylase immunoreactive neurons. The test is classed as in vivo, mice. Particulars: MPTP 40 mg/kg; systemically administered (Fig. 22a). The procedure: MPTP was administered at a dose (40 mg/kg) that produces loss of striatal dopaminergic terminals and cell bodies in the substantia nigra. Tyrosine hydroxylase was used as a marker for dopamenergic nerve terminals in the substantia nigra. […] Since Compound III-3 is a known inhibitor of MLK3, activation of a downstream substrate of MLK3 was measured in MPTP- treated mice. Levels of phosphorylated MKK4 were measured using a phospho-MKK4 specific antibody (New England Biolabs, Beverly, MA) that recognizes the monophosphorylated form of MKK4 by either immunoblot (Fig. 22b) or ELISA (Fig. 22c). MPTP administration elevated levels of phosphorylated MKK4 in the substantia nigra by up to 5 fold over control levels (Fig. 22b). Peak elevations occurred 4 hrs after administration ofMPTP and coincided with peak CNS levels of MPP^+.

Another test relates to motoneurons. The test can be described thus: Survival of rat spinal cord cultures enriched for motoneurons (calcein AM). It counts as cell-based. Conditions: data not shown. As for the experimental part: Spinal cords were dissected from Sprague-Dawley rat fetuses (Charles River Laboratories, Wilmington. MA) of embryonic age (E) 14.5-15. […] Cells were seeded onto 96-well plates previously coated with poly-1-omithine and laminin (5 ug/ml each) at a density of 6 x 10^4 cells/cm^2 in chemically defined serum-free N2 medium (Bottenstein, et al., 1979, supra). In order to separate attachment from survival effects, addition of compounds to cultures was made after an initial attachment period of 1-3 h. Neuronal survival was assessed after 4 d by using calcein AM (Molecular Probes, Eugene, OR) in a fluorometric viability assay (Bozyczko-Coyne, et al., 1993, supra). Microscopic counts of neurons correlated directly with relative fluorescence values. In brief, culture medium was serially diluted in DPBS (Dulbeccos phosphate buffered saline) and a final concentration of 6 uM calcein AM stock was then added to each 96-well. The plates were incubated for 30 min at 37°C, followed by serial dilution washes in DPBS. The fluorescent signal was read using a plate-reading fluorimeter from Millipore (Cytofluor 2350) at excitation=485 nm and emission = 538 nm. […] Linearity of the fluorescence signal was verified for the concentration and incubation time for the range of cell densities in these experiments. […]

The subject of a further test is chick motoneurons. The test can be described thus: Survival of chick embryonic motoneurons. The test is classed as cell-based. The procedure:
Motoneurons (embryonic day 5.5) were isolated with an immunological method according to the procedure set forth in Bloch-Gallego, et al., Development, 1991, 111, 221-232, which is incorporated herein by reference in its entirety, with modifications as described in Weng, et al., NeuroReport, 1996, 7, 1077-1081, which is incorporated herein by reference in its entirety. Purified motoneurons were seeded onto 35 mm tissue culture dishes (Nunc) pre-coated with poly-DL-omithine and laminin (1 µg/ml, Upstate Biotech). […] Muscle extract was supplemented at 30 µg/ml. Compound III-3 was prepared as a 4mM stock solution in DMSO and stored protected from light at 4°C. The final concentration of DMSO in treated and control cultures was 0.125%.
as §1

As to `CCSCc1ccc2c(c1)c1c3c(c4c5cc(CSCC)ccc5n5c4c1n2C1CC(O)(C(=O)OC)C5(C)O1)CNC3=O` (stereo not drawn) [III-3], in test [1] (10% serum (Fig. 16)), the “concentration at which the survival effect reached a plateau” value is “around 1 µM”. Also, the SG neurons alive in test [1] (after 48 h, Compound III-3 1 µM, NGF 20 ng/ml, 10% serum) is 94%. Also, the SG survival in test [1] (after four days) is listed as 83%. Besides, in the test with JNK, the inhibition at 0.5 µM was 93%. In addition, in test [2], the “loss of substantia nigra tyrosine hydroxylase immunoreactive neurons after MPTP lesion” value is listed as “attenuated the loss”. The “potency in mediating survival in motor neuron-enriched cultures relative to K-252a” value with motoneurons is recorded as “approximately fivefold”. In the test on chick motoneurons (after 48 h, Compound III-3 300 nM, serum-free conditions, muscle extract 30 µg/ml), this compound yielded a motoneurons survived of 79%. In addition, the motoneurons alive with chick motoneurons (after four days in culture) worked out at 56%. Besides, in the test on chick motoneurons (serum-free conditions, higher concentrations showed a progressively reduced effect), the “concentration of maximal survival effect” value was 300 nM.
